Several values for one entry are separate records, joined by “and”; a condition that tells them apart may be missing. Equal entries are not always repeated.
Test system: C57BL/6N mice
Assay: Hepatic total bile acids (TBA colorimetric assay kit)
Format: in vivo
Conditions: for Hepatic TBA: individual mice
Description: Male C57BL/6N mice (8 wk of age) were purchased from Beijing Vital River Laboratory Inc. and acclimated to the environment for 2 wk before they were used for experiments. The environment was maintained at 22°C, in a 12-h light/dark cycle with 50%–60% relative humidity and fed standard chow diets. Because the male mice are more sensitive to metabolic disease than female mice and the estrous cycle of female mice may induce variability to the metabolic phenotypes,[50] only male mice were used in this study. Animals were randomly assigned to control or TPHP treatment groups (five mice per group). Mice were exposed to corn oil (control) purchased from Sigma-Aldrich (C8267) or TPHP (dissolved in corn oil) at 10mg/kg or 50mg/kg body weight (BW) by daily oral gavage for 35 d. The administered volume was 5mL/kg BW. The TPHP corn oil solutions for administration were prepared by dissolving the TPHP in corn oil, and the solutions were stored at −20°C and freshly prepared each week. BW was measured every other day during the dosing period. At the end of experiments, the mice were anesthetized with isoflurane, then blood was collected from the retro-orbital sinus via orbital puncture, and then the mice were euthanized by cervical dislocation. The liver was isolated, weighted, and divided into three fractions: one fraction was fixed with 4% neutral-buffered formalin for Oil Red staining; another fraction was frozen in liquid nitrogen and stored at −80°C for the BA targeted analysis, lipidomic analysis, and qPCR analysis; the remaining fraction was embedded with 3% carboxymethylcellulose (CMC) for MSI analysis. The ileum was also isolated, weighted, and stored at −80°C for the BA targeted analysis and qRT-PCR analysis. […]
The TG level in the liver was determined using a triglyceride enzymatic assay kit (Applygen). […] The total BA level in the liver was determined using a Total Bile Acid (TBA) Colorimetric Assay Kit (Elabscience). […] Both the TG and TBA results were normalized by the protein concentration determined by bicinchoninic acid (BCA) method using a BCA kit (Applygen).

`O=P(Oc1ccccc1)(Oc1ccccc1)Oc1ccccc1` [TPHP, triphenyl phosphate] was tested, and the “Increase of total BA concentration in the liver relative to the control group” value (TPHP-H group, 35 d of exposure) was 2 fold, the “Hepatic TBA” value (TPHP-H: 50 mg/kg daily oral gavage 35 d) was 2.67 µmol/g and 2.92 µmol/g and 2.08 µmol/g and the “Hepatic TBA” value (TPHP-L: 10 mg/kg daily oral gavage 35 d) was 1.89 µmol/g and 1.55 µmol/g and 1.58 µmol/g.

Source: publication PMC12010937, “Evaluation of FXR Activity in Pollutants Identified in Sewage Sludge and Subsequent in Vitro and in Vivo Characterization of Metabolic Effects of Triphenyl Phosphate” (Environmental Health Perspectives, 2025)
